Experimental data reported in patent publication US12655173B2, “Hybrid amide derivatives of amphotericin B” (priority 2020, dated 2026).
In brackets after ≈: the same amount, converted by molar mass. Where two headings read alike, the source gives them in different places.

Assays:
yeast = test: MICavg / Average MIC against yeasts; type: cell-based; conditions: for MIC: 46 isolates, Table 3
moulds = test: MICavg / Average MIC against moulds; type: cell-based; conditions: for MIC: 157 isolates, Table 2
[1] = system: erythrocytes (whole human blood); test: MHC hemolysis assay; type: cell-based
Experimental: MHC (FIG. 1B and FIG. 10): The protocol for the hemolysis assay was adapted from the report of Paquet and coworkers (Chem. Eur. J. 2008, 14, 2465-2481). Whole human blood (sodium heparin) was purchased from Bioreclamation LLC (Westbury, NY) and stored at 4° C. and used within two days of receipt. To a 2.0 mL appendorf tube, 1 mL of whole human blood was added and centrifuged at 10,000 g for 2 minutes. The supernatant was removed and the erythrocyte pellet was washed with 1 mL of sterile saline and centrifuged at 10,000 g for 2 minutes. The saline wash was repeated for a total of three washes. The erythrocyte pellet was suspended in 1 mL of RBC buffer (10 mM NaH2PO4, 150 mM NaCl, 1 mM MgCl2, pH 7.4) to form the erythrocyte stock suspension.
Compounds were prepared as >15 mM stock solutions in DMSO and serially diluted to the following concentrations with DMSO: 7689, 5126, 2563, 2050, 1538, 1025, 769, 513, 384, 256, 205, 154, 103, 77, 51, 26 μM. To a 0.2 mL PCR tube, 24 μL of RBC buffer and 1 μL of compound stock solution were added, which gave final concentrations of 500, 300, 200, 100, 80, 60, 40, 30, 20, 15, 10, 8, 6, 4, 3, 2, 1 μM. Positive and negative controls were prepared by adding 1 μL of DMSO to MilliQ water or RBC buffer, respectively to 0.2 mL PCR tube. To each PCR tube, 0.63 μL. of the erythrocyte stock suspension was added and mixed by inversion. The samples were incubated at 37° C. for 2 hours. The samples were mixed by inversion and centrifuged at 10,000 g for 2 minutes. 15 μL of the supernatant from each sample was added to a 384-well place. Absorbances were read at 540 nm using a Biotek H1 Synergy Hybrid Reader (Winooski, VT), Experiments were performed in triplicate and the reported MHC represents an average of three experiments.

[2] = Blood plasma stability, mouse; type: in vitro ADME
[3] = Blood plasma stability, human; type: in vitro ADME
A. fumigatus = test: MIC against moulds; type: cell-based
A. flavus = test: MIC against moulds; type: cell-based
A. lentulus = test: MIC against moulds; type: cell-based; conditions: 6 isolates, AmB (AmBisome)
A. tubingensis = test: MIC against moulds; type: cell-based; conditions: for MIC A. tubingensis: 6 isolates, AmB (AmBisome)
Mucor circinelloides = test: MIC against moulds; type: cell-based; conditions: for MIC Mucor circinelloides: 6 isolates, AmB (AmBisome)
Coccidioides immitis = test: microbe, parasite or virus in culture; type: cell-based; conditions: for MIC Coccidioides immitis: 6 isolates, AmB (AmBisome)
Coccidioides posadasii = test: microbe, parasite or virus in culture; type: cell-based; conditions: for MIC Coccidioides posadasii: 6 isolates, AmB (AmBisome)
Fusarium oxysporum = test: MIC against moulds; type: cell-based; conditions: 6 isolates, AmB (AmBisome)
[4] = system: P. variotii MYA-3630 (QC); test: MIC against moulds; type: cell-based; conditions: 5 isolates, AmB (AmBisome)
Cunninghamella sp. = test: MIC against moulds; type: cell-based; conditions: 6 isolates, AmB (AmBisome)
Licht. Corymbifera = test: MIC against moulds; type: cell-based; conditions: 6 isolates, AmB (AmBisome)
Licht. Ramosa = test: MIC against moulds; type: cell-based; conditions: 6 isolates; AmB (AmBisome)
Syncephalastrum sp. = test: MIC against moulds; type: cell-based; conditions: 6 isolates, AmB (AmBisome)
Claophialophora bantiana = test: MIC against moulds; type: cell-based; conditions: 6 isolates; AmB (AmBisome)
Talaromyces marneffei = test: MIC against moulds; type: cell-based; conditions: 6 isolates, AmB (AmBisome)
Candida auris = test: MIC against yeasts; type: cell-based
Candida krusei = test: MIC against yeasts; type: cell-based
Candida parapsilosis = test: MIC against yeasts; type: cell-based
Cryptococcus gattii = test: MIC against yeasts; type: cell-based
Rhodotorula sp. = test: MIC against yeasts; type: cell-based; conditions: 6 isolates, Table 3
[5] = system: Purpureocillium lilacinum; test: MIC against rare moulds resistant to AmB; type: cell-based; conditions: 6 isolates, Table 4
Scedosporium aurantiacum = test: MIC against rare moulds resistant to AmB; type: cell-based; conditions: 4 isolates, Table 4
Scedosporium boydii = test: MIC against rare moulds resistant to AmB; type: cell-based; conditions: 6 isolates, Table 4
Lomentospora prolificans = test: MIC against rare moulds resistant to AmB; type: cell-based; conditions: 6 isolates, Table 4
[6] = Liver microsome stability; conditions: rat, dog, monkey; for Liver microsome (T1/2, min): Mouse, human: All species
[7] = 2 isolates, Table 3, read-out: MIC Candida krusei
[8] = 10 isolates, Table 3, read-out: MIC Cryptococcus gattii

C[C@@H]1[C@H](O)[C@@H](C)/C=C/C=C/C=C/C=C/C=C/C=C/C=C/[C@H](OC2O[C@H](C)[C@@H](O)[C@H](N)[C@@H]2O)C[C@@H]2O[C@](O)(C[C@@H](O)C[C@@H](O)[C@H](O)CC[C@@H](O)C[C@@H](O)CC(=O)O[C@H]1C)C[C@H](O)[C@H]2C(=O)O (stereo partly drawn) [AmB, Amphotericin B]
MICavg yeast (5 strains) (yeast): 0.23
MIC (yeast): 0.9 µM (≈ 0.832 µg/mL)
MICavg yeast (46 strains) (yeast): 0.9
MICavg moulds (3 strains) (moulds): 0.92
MIC (moulds): 0.9 µM (≈ 0.832 µg/mL)
MICavg moulds (159 strains) (moulds): 0.9
MHC [1]: 8.4
half-life ([2]; mouse, blood plasma, read-out: Blood Plasma Stability (T1/2, min) Mouse): > 289 min
half-life ([3]; human, blood plasma, read-out: Blood Plasma Stability (T1/2, min) Human): > 289 min
MIC (A. fumigatus; Aspergillus fumigatus, 5 isolates, AmB (AmBisome)): 0.71 µM (≈ 0.656 µg/mL)
MIC (A. fumigatus; Aspergillus fumigatus, 16 isolates, Table 2A): 2.1 µM (≈ 1.94 µg/mL)
MIC (A. flavus; Aspergillus flavus, 3 isolates, Table 2A): 4 µM (≈ 3.7 µg/mL)
MIC (A. flavus; Aspergillus flavus, 6 isolates, AmB (AmBisome)): 1.16 µM (≈ 1.07 µg/mL)
MIC (A. lentulus; Aspergillus lentulus): 3.75 µM (≈ 3.47 µg/mL)
MIC (A. tubingensis; Aspergillus tubingensis, read-out: MIC A. tubingensis): 0.125 µM (≈ 0.116 µg/mL)
MIC (Mucor circinelloides; Mucor circinelloides, read-out: MIC Mucor circinelloides): 0.125 µM (≈ 0.116 µg/mL)
MIC (Coccidioides immitis; Coccidioides immitis, read-out: MIC Coccidioides immitis): 0.125 µM (≈ 0.116 µg/mL)
MIC (Coccidioides posadasii; Coccidioides posadasii, read-out: MIC Coccidioides posadasii): 0.06 µM (≈ 0.0554 µg/mL)
MIC (Fusarium oxysporum; Fusarium oxysporum): 1.5 µM (≈ 1.39 µg/mL)
MIC ([4]; Paecilomyces variotii): 1 µM (≈ 0.924 µg/mL)
MIC (Cunninghamella sp.; Cunninghamella): 2 µM (≈ 1.85 µg/mL)
MIC (Licht. Corymbifera; Lichtheimia corymbifera): 0.23 µM (≈ 0.213 µg/mL)
MIC (Licht. Ramosa): 0.15 µM (≈ 0.139 µg/mL)
MIC (Syncephalastrum sp.; Syncephalastrum): 0.06 µM (≈ 0.0554 µg/mL)
MIC (Claophialophora bantiana): 0.375 µM (≈ 0.347 µg/mL)
MIC (Talaromyces marneffei; Talaromyces marneffei): 0.09 µM (≈ 0.0832 µg/mL)
MIC (Candida auris; Candidozyma auris, 10 isolates, Table 3): 1.2 µM (≈ 1.11 µg/mL)
MIC (Candida auris; Candidozyma auris, 15 isolates, Table 3A): 2.9 µM (≈ 2.68 µg/mL)
MIC (Candida krusei; Pichia kudriavzevii, read-out: MIC Candida krasei): 2.5 µM (≈ 2.31 µg/mL)
MIC (Candida krusei; Pichia kudriavzevii, 2 isolates, Table 3, read-out: MIC Candida krusei): 1 µM (≈ 0.924 µg/mL)
MIC (Candida parapsilosis; Lodderomyces parapsilosis, 6 isolates, Table 3A): 0.5 µM (≈ 0.462 µg/mL)
MIC (Candida parapsilosis; Lodderomyces parapsilosis, 8 isolates, Table 3): 1.1 µM (≈ 1.02 µg/mL)
MIC (Cryptococcus gattii; Cryptococcus gattii, 1 isolate, Table 3A, read-out: MIC Cryptococcus gatti): 1 µM (≈ 0.924 µg/mL)
MIC (Cryptococcus gattii; Cryptococcus gattii, 10 isolates, Table 3, read-out: MIC Cryptococcus gattii): 0.75 µM (≈ 0.693 µg/mL)
MIC (Rhodotorula sp.; Rhodotorula): 1 µM (≈ 0.924 µg/mL)
MIC ([5]; Purpureocillium lilacinum): > 16 µM
MIC (Scedosporium aurantiacum; Scedosporium aurantiacum): > 16 µM
MIC (Scedosporium boydii; Scedosporium boydii): > 16 µM
MIC (Lomentospora prolificans; Lomentospora prolificans): > 16 µM
half-life ([6]; mouse, human, liver microsomes): > 2.42 h

CC1C=CC=CC=CC=CC=CC=CC=CC(OC2OC(C)C(O)C(N)C2O)CC2OC(O)(CC(O)CC(O)C(O)CCC(O)CC(O)CC(=O)OC(C)C(C)C1O)CC(O)C2C(=O)NC(CO)CO (stereo not drawn) [Compound 1]
MICavg yeast (5 strains) (yeast): 0.53
MIC (yeast): 2.1 µM (≈ 2.09 µg/mL)
MICavg yeast (46 strains) (yeast): 2.1
MICavg moulds (3 strains) (moulds): 1.6
MIC (moulds): 1.4 µM (≈ 1.4 µg/mL)
MICavg moulds (159 strains) (moulds): 1.4
MHC [1]: >100
Blood Plasma Stability (T1/2, min) Mouse [2]: >289; >289 min
Blood Plasma Stability (T1/2, min) Human [3]: >289; >289 min
MIC (A. fumigatus; 5 isolates, AmB (AmBisome)): 1.33 µM (≈ 1.33 µg/mL)
MIC (A. flavus; 6 isolates, AmB (AmBisome)): 1.67 µM (≈ 1.67 µg/mL)
MIC (A. lentulus): 2.33 µM (≈ 2.32 µg/mL)
MIC A. tubingensis (A. tubingensis): 0.83 µM (≈ 0.828 µg/mL)
MIC Mucor circinelloides (Mucor circinelloides): 0.58 µM (≈ 0.578 µg/mL)
MIC Coccidioides immitis (Coccidioides immitis): 0.27 µM (≈ 0.269 µg/mL)
MIC Coccidioides posadasii (Coccidioides posadasii): 0.25 µM (≈ 0.249 µg/mL)
MIC (Fusarium oxysporum): 6 µM (≈ 5.98 µg/mL)
MIC [4]: 2 µM (≈ 1.99 µg/mL)
MIC (Cunninghamella sp.): 4 µM (≈ 3.99 µg/mL)
MIC (Licht. Corymbifera): 0.5 µM (≈ 0.499 µg/mL)
MIC (Licht. Ramosa): 0.58 µM (≈ 0.578 µg/mL)
MIC (Syncephalastrum sp.): 0.5 µM (≈ 0.499 µg/mL)
MIC (Claophialophora bantiana): 1.17 µM (≈ 1.17 µg/mL)
MIC (Talaromyces marneffei): 0.12 µM (≈ 0.12 µg/mL)
MIC (Candida auris; 10 isolates, Table 3): 2.6 µM (≈ 2.59 µg/mL)
MIC (Candida krusei; [7]): 2 µM (≈ 1.99 µg/mL)
MIC (Candida parapsilosis; 8 isolates, Table 3): 1.8 µM (≈ 1.79 µg/mL)
MIC (Cryptococcus gattii; [8]): 1.6 µM (≈ 1.6 µg/mL)
MIC (Rhodotorula sp.): 2.8 µM (≈ 2.79 µg/mL)
MIC [5]: >16 µM
MIC (Scedosporium aurantiacum): >16 µM
MIC (Scedosporium boydii): >16 µM
MIC (Lomentospora prolificans): >16 µM
Liver microsome (T1/2, min) [6]: >145 min

CC1C=CC=CC=CC=CC=CC=CC=CC(OC2OC(C)C(O)C(N)C2O)CC2OC(O)(CC(O)CC(O)C(O)CCC(O)CC(O)CC(=O)OC(C)C(C)C1O)CC(O)C2C(=O)NC(CO)(CO)CO (stereo not drawn) [Compound 2]
MICavg yeast (5 strains) (yeast): 0.41
MIC (yeast): 2.3 µM (≈ 2.36 µg/mL)
MICavg yeast (46 strains) (yeast): 2.3
MICavg moulds (3 strains) (moulds): 1
MIC (moulds): 2.6 µM (≈ 2.67 µg/mL)
MICavg moulds (159 strains) (moulds): 2.6
MHC [1]: >60
Blood Plasma Stability (T1/2, min) Mouse [2]: 265.1 min
Blood Plasma Stability (T1/2, min) Human [3]: > 289 min
MIC (A. fumigatus; 5 isolates, AmB (AmBisome)): 2.33 µM (≈ 2.39 µg/mL)
MIC (A. flavus; 6 isolates, AmB (AmBisome)): 1.67 µM (≈ 1.72 µg/mL)
MIC (A. lentulus): 4.33 µM (≈ 4.45 µg/mL)
MIC A. tubingensis (A. tubingensis): 0.92 µM (≈ 0.945 µg/mL)
MIC Mucor circinelloides (Mucor circinelloides): 0.92 µM (≈ 0.945 µg/mL)
MIC Coccidioides immitis (Coccidioides immitis): 0.27 µM (≈ 0.277 µg/mL)
MIC Coccidioides posadasii (Coccidioides posadasii): 0.5 µM (≈ 0.514 µg/mL)
MIC (Fusarium oxysporum): 13.3 µM (≈ 13.7 µg/mL)
MIC [4]: 2.67 µM (≈ 2.74 µg/mL)
MIC (Cunninghamella sp.): 5.33 µM (≈ 5.48 µg/mL)
MIC (Licht. Corymbifera): 1 µM (≈ 1.03 µg/mL)
MIC (Licht. Ramosa): 0.75 µM (≈ 0.77 µg/mL)
MIC (Syncephalastrum sp.): 1 µM (≈ 1.03 µg/mL)
MIC (Claophialophora bantiana): 1.83 µM (≈ 1.88 µg/mL)
MIC (Talaromyces marneffei): 0.21 µM (≈ 0.216 µg/mL)
MIC (Candida auris; 10 isolates, Table 3): 2.6 µM (≈ 2.67 µg/mL)
MIC (Candida krusei; [7]): 3 µM (≈ 3.08 µg/mL)
MIC (Candida parapsilosis; 8 isolates, Table 3): 1.6 µM (≈ 1.64 µg/mL)
MIC (Cryptococcus gattii; [8]): 2 µM (≈ 2.05 µg/mL)
MIC (Rhodotorula sp.): 3.7 µM (≈ 3.8 µg/mL)
MIC [5]: >16 µM
MIC (Scedosporium aurantiacum): >16 µM
MIC (Scedosporium boydii): >16 µM
MIC (Lomentospora prolificans): >16 µM
Liver microsome (T1/2, min) [6]: >145 min
